Data as given in ChEMBL document CHEMBL3779788, “Facile synthesis of 1,3-thiazolidin-4-ones as antitubercular agents” (Bioorg Med Chem Lett, 2016).
Values after ≈ are worked out from the molar mass of the structure shown.

Tests used:
[1] = tested on: Mycobacterium bovis BCG str. ATCC 35743; experiment: Antitubercular activity against dormant Mycobacterium bovis BCG ATCC 35743 assessed as growth inhibition at 3 ug/mL by NR assay; format: functional
[2] = tested on: Mycobacterium bovis BCG str. ATCC 35743; experiment: Antitubercular activity against dormant Mycobacterium bovis BCG ATCC 35743 assessed as growth inhibition at 10 ug/mL by NR assay; format: functional
[3] = tested on: Mycobacterium tuberculosis; experiment: Antitubercular activity against dormant Mycobacterium tuberculosis H37Ra assessed as growth inhibition at 30 ug/mL by XTT reduction menadione assay; format: functional; conditions: read-out: GI
[4] = tested on: Mycobacterium tuberculosis; experiment: Antitubercular activity against dormant Mycobacterium tuberculosis H37Ra assessed as growth inhibition at 10 ug/mL by XTT reduction menadione assay; format: functional; conditions: read-out: GI
[5] = tested on: Mycobacterium tuberculosis; experiment: Antitubercular activity against dormant Mycobacterium tuberculosis H37Ra assessed as growth inhibition at 3 ug/mL by XTT reduction menadione assay; format: functional; conditions: read-out: GI
[6] = tested on: Mycobacterium bovis BCG str. ATCC 35743; experiment: Antitubercular activity against dormant Mycobacterium bovis BCG ATCC 35743 assessed as growth inhibition at 30 ug/mL by NR assay; format: functional
[7] = (§1) Antitubercular activity against dormant Mycobacterium bovis BCG ATCC 35743 by NR assay; format: functional, Mycobacterium bovis BCG str. ATCC 35743
[8] = tested on: Mycobacterium bovis BCG str. ATCC 35743; experiment: as §1; format: functional
[9] = tested on: Mycobacterium tuberculosis; experiment: Antitubercular activity against dormant Mycobacterium tuberculosis H37Ra by XTT reduction menadione assay; format: functional, organism-based
[10] = Cytotoxicity against human MCF7 cells at 30 ug/mL by MTT assay; format: cell-based; conditions: read-out: INH
[11] = Cytotoxicity against human MCF7 cells at 10 ug/mL by MTT assay; format: cell-based; conditions: read-out: INH
[12] = Cytotoxicity against human MCF7 cells at 3 ug/mL by MTT assay; format: cell-based; conditions: read-out: INH
[13] = Cytotoxicity against human A549 cells at 30 ug/mL by MTT assay; format: cell-based; conditions: read-out: INH
[14] = Cytotoxicity against human A549 cells at 10 ug/mL by MTT assay; format: cell-based; conditions: read-out: INH
[15] = Cytotoxicity against human A549 cells at 3 ug/mL by MTT assay; format: cell-based; conditions: read-out: INH
[16] = Cytotoxicity against human HCT116 cells at 30 ug/mL by MTT assay; format: cell-based, HCT-116; conditions: read-out: INH
[17] = Cytotoxicity against human HCT116 cells at 10 ug/mL by MTT assay; format: cell-based, HCT-116; conditions: read-out: INH
[18] = Cytotoxicity against human HCT116 cells at 3 ug/mL by MTT assay; format: cell-based, HCT-116; conditions: read-out: INH
[19] = Cytotoxicity against human HCT116 cells after 48 and 72 hrs by MTT assay; format: cell-based, HCT-116; conditions: for GI50 at 72 h: HCT116 cells; for GI90: hct-116, 72 h
[20] = (§2) Cytotoxicity against human A549 cells after 48 and 72 hrs by MTT assay; format: cell-based; conditions: A549 cells
[21] = tested on: A549; experiment: as §2; format: cell-based; conditions: a549, 72 h
[22] = (§3) Cytotoxicity against human MCF7 cells after 48 and 72 hrs by MTT assay; format: cell-based; conditions: MCF7 cells
[23] = tested on: MCF7; experiment: as §3; format: cell-based; conditions: mcf7, 72 h
[24] = tested on: Escherichia coli; experiment: Antibacterial activity against Escherichia coli after 18 hrs by broth dilution method; format: functional, organism-based
[25] = tested on: Pseudomonas; experiment: Antibacterial activity against Pseudomonas after 18 hrs by broth dilution method; format: functional, organism-based
[26] = tested on: Staphylococcus aureus; experiment: Antibacterial activity against Staphylococcus aureus after 18 hrs by broth dilution method; format: functional, organism-based
[27] = tested on: Bacillus subtilis; experiment: Antibacterial activity against Bacillus subtilis after 18 hrs by broth dilution method; format: functional, organism-based

Compound	growth inhibition (GI) [1] [%]	growth inhibition (GI) [2] [%]	inhibition of growth at 30 µg/mL [3] [%]	inhibition of growth at 10 µg/mL [4] [%]	inhibition of growth at 3 µg/mL [5] [%]	growth inhibition (GI) [6] [%]	IC50 [7] [µg/mL]	IC90 [8] [µg/mL]	IC50 [9] [µg/mL]	IC90 [9] [µg/mL]	cytotoxicity at 30 ug/mL [10] [%]	cytotoxicity at 10 ug/mL [11] [%]	cytotoxicity at 3 ug/mL [12] [%]	cytotoxicity at 30 ug/mL [13] [%]	cytotoxicity at 10 ug/mL [14] [%]	cytotoxicity at 3 ug/mL [15] [%]	cytotoxicity at 30 ug/mL [16] [%]	cytotoxicity at 10 ug/mL [17] [%]	cytotoxicity at 3 ug/mL [18] [%]	GI50 at 72 h [19] [µg/mL]	further results
Cc1ccc(C2SCC(=O)N2c2ccc(F)cc2)cc1 (stereo unspecified)	-3	-4	51.3	-37	10.9	-3.9	> 30	> 30	29.8 (≈ 104 µM)	> 30	37.5	37.7	22.3	-11.4	0	0	29.6	9.1	1.1	> 100	GI90 [19]: > 100 µg/mL; GI50 at 72 h [20]: > 100 µg/mL; GI90 [21]: > 100 µg/mL; GI50 at 72 h [22]: > 100 µg/mL; GI90 [23]: > 100 µg/mL; IC50 [24]: > 30 µg/mL; MIC [24]: > 30 µg/mL; IC50 [25]: > 30 µg/mL; MIC [25]: > 30 µg/mL; IC50 [26]: > 30 µg/mL; MIC [26]: > 30 µg/mL; IC50 [27]: > 30 µg/mL; MIC [27]: > 30 µg/mL
CC(=O)O[C@H]1C(=O)[C@@]2(C)[C@H]([C@H](OC(=O)c3ccccc3)[C@]3(O)C[C@H](OC(=O)[C@H](O)[C@@H](NC(=O)c4ccccc4)c4ccccc4)C(C)=C1C3(C)C)[C@]1(OC(C)=O)CO[C@@H]1C[C@@H]2O [PACLITAXEL]																				5.21 (≈ 6.1 µM)	GI90 [19]: 0.026 µg/mL (≈ 0.0304 µM); GI50 at 72 h [20]: 0.039 µg/mL (≈ 0.0457 µM); GI90 [21]: < 0.004 µg/mL; GI50 at 72 h [22]: 0.075 µg/mL (≈ 0.0878 µM); GI90 [23]: 0.0039 µg/mL (≈ 0.00457 µM)
O=C1CSC(c2ccc([N+](=O)[O-])cc2)N1c1ccccc1 (stereo unspecified)	17.8	12.5	-8.8	-30.4	-17.1	14.4	> 30	> 30	> 30	> 30	52.6	49.9	47	8.8	6.7	0.3	29.3	9	-11.5		
Cc1ccc(N2C(=O)CSC2c2ccc(Cl)cc2)cc1 (stereo unspecified)	-6.6	29.2	5.2	38.1	34	5.3	> 30	> 30	> 30	> 30	11.3	9.6	-0.9	0	0	1.3	28.8	7.2	-8.6		
O=C1CSC(c2ccc(Cl)cc2)N1c1ccc(F)cc1 (stereo unspecified)	-2.1	-9.9	-45.6	-3.2	8.8	-1	> 30	> 30	> 30	> 30	26.1	11.5	12.4	0	0	0	34.5	0.2	-6.2		
